# Patent US20260167654A1, “PLANT CELL WALL-DISSOLVING AGENT” (Kanazawa University, priority 2022, published 2026)
# Key:
# [1] = Viscosity measurement (Brookfield viscometer, CPE52 spindle); format: physicochemical
# Method: The viscometer used was Brookfield LVDV2TCP with a CPE52 spindle, or Brookfield RVDV2T with a CPE52 spindle.
# C1imC2OE3C obtained in Synthesis Example 1 and OE2imC2OE3C obtained in Synthesis Example 2 were measured for viscosity at 80° C. The viscometer used was Brookfield LVDV2TCP with a CPE52 spindle. The viscometer was heated to 80° C. by passing warm water therethrough, and the viscosity of the samples was measured.
# [2] = Cellulose solubility (cellulose added in 1 wt % steps, heating and stirring 1 hour, visual); format: physicochemical
# Method: The cellulose solubility of C1imC2OE3C obtained in Synthesis Example 1, OE2imC2OE3C obtained in Synthesis Example 2, and OE2imC3C (R^1═H3C(OCH2CH2)2, A=imidazolium cation, B=—COO^−, and n=0 (a compound having no oxyalkylene structure between the cationic and anionic moieties; the compound described in Non-Patent Literature 2)) as a comparative example was measured. […] The concentration at which cellulose dissolution was confirmed was visually measured.
# Thus, when heating to 80° C., a stirrer rotated in C1imC2P and started to rotate smoothly at 120° C. Accordingly, a cellulose solubility experiment was performed at 120° C. Avicel was added in increments of 1 wt %, and when dissolved over 1 hour, additional Avicel was added in increments of 1 wt %. As a result of the experiment, C1imC2P dissolved 4 wt % Avicel.
# [3] = State of the zwitterions at 25° C.; format: physicochemical; settings: room temperature (25° C.)
# Method: C1imC2OE3C (R^1═CH3, A=imidazolium cation, R^3═CH2CH2, n=3, and B=—COO^−) obtained in Synthesis Example 1 and OE2imC2OE3C(R^1═H3C(OCH2CH2)2, A=imidazolium cation, R^3═CH2CH2, n=3, and B=—COO^−) obtained in Synthesis Example 2 were both liquid at room temperature (25° C.).
# [4] = Differential scanning calorimetry; format: physicochemical
# Method: Experimental method: Under N2 atmosphere, liquid nitrogen was used during cooling. After the temperature was increased at a rate of 10° C./min to 20° C. below the pyrolysis point starting at 25° C., two sets of “cooling to −100° C. at a rate of −10° C./min→heating to 20° C. below the pyrolysis point at a rate of 10° C./min” were repeated (holding time: 5 minutes for each stage), followed by cooling down to 25° C.
# C1imC2OE3C obtained in Synthesis Example 1 was subjected to differential scanning calorimetry.
# [5] = TG-DTA pyrolysis temperature (weight loss on heating at 10° C./min); format: physicochemical
# Method: Experimental method: Under N2 atmosphere, the temperature was increased to 500° C. at a rate of 10° C./min starting at room temperature. The pyrolysis point was evaluated at the intersection of the tangent lines between the steady state and the decomposition.
# C1imC2OE3C obtained in Synthesis Example 1 was heated at a rate of 10° C./min, and the temperature at which the weight loss occurred (pyrolysis temperature) was measured. As a result, this compound was thermally decomposed at about 249° C. and was stable up to 249° C.
# [6] = tested on: Kluyveromyces marxianus; assay: Toxicity to yeast (OD600 of culture in liquid medium); format: cell-based; settings: culturing at 50° C., concentration and time of the value not stated
# Method: The toxicity of C1imC2P to yeast was examined. The yeast used was Kluyveromyces marxianus. C1imC2P was added to a liquid medium at concentrations of 0 mol/L, 0.01 mol/L, 0.05 mol/L, 0.1 mol/L, 0.5 mol/L and 1.0 mol/L respectively. This was inoculated with bacteria, and while culturing at 50° C., OD600 was measured with a plate reader 0, 2, 4, and 6 hours later. OD600 indicates the density of bacterial cells. Further, relative OD600 is a relative parameter when the control is 1.00. A higher value of relative OD600 indicates a lower toxicity of the zwitterion. The relative OD600 of C1imC2P was 0.77, indicating low toxicity.
Viscosity at 80° C. [1],State at 25° C. [3],did not change / in a liquid state from room temperature up to temperature [4],stable (does not decompose) up to temperature [5],pyrolysis temperature (temperature at which the weight loss occurred) ([5]; heated at a rate of 10° C./min),"Viscosity (in words) ([1]; 100 wt % zwitterion, room temperature (25° C.))",SMILES,Cellulose solubility ([2]; 100° C.),Cellulose solubility ([2]; 120° C.),relative OD600 (control is 1.00) [6],"Cellulose solubility (Avicel dissolved) ([2]; 120° C., Avicel added in increments of 1 wt %, 1 hour each)"
810 mPa · s,liquid,,,,,COCCOCC[n+]1ccn(CCOCCOCCOCCC(=O)[O-])c1 [OE2imC2OE3C],11 wt %,11 wt %,,
940 mPa · s,solid,,,,,"COCCOCCn1cc[n+](CCCC(=O)[O-])c1 [OE2imC3C, reference compound]",6 wt %,10 wt %,,
"2,500 mPa · s",liquid,around 250 °C,up to 249 °C,about 249 °C,,C[n+]1ccn(CCOCCOCCOCCC(=O)[O-])c1 [Zwitterion C1imC2OE3C],11 wt %,14 wt %,,
,liquid,,,,very high viscosity,C[n+]1ccn(CCOP(=O)([O-])O)c1 [Zwitterion C1imC2P],,,0.77,4 wt %
